13 compounds from PubChem BioAssay (NCI) can be followed below.

Some test systems named below: HCT-116 colon; M14 melanoma; MALME-3M melanoma; SF-539 CNS; SNB-75 CNS; SR leukemia; SW-620 colon; UACC-257 melanoma; UO-31 renal; MDA-MB-435.
Common to all, as to assay: growth of human tumour cells (NCI), 48 h

“And” between values parts separate entries of the source, which are not always exact repeats. Equal entries are not always repeated.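 All cell lines were grown in 96-well plates and treated with compound for 48 hours. At the GI50, growth is halved. Definition used: TGI = concentration required for complete inhibition of growth.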

With `O=C(N/C(=C\c1cccc([N+](=O)[O-])c1)c1nc2ccccc2[nH]1)c1ccccc1`, the TGI in the test with HCT-116 colon, in the test on M14 melanoma, in the test with MALME-3M melanoma, in the test with SF-539 CNS, in the test with SNB-75 CNS and in the test on SR leukemia was greater than 100 µM each time. Also, the TGI with SW-620 colon was greater than 100 µM; with UACC-257 melanoma it was greater than 100 µM; in the test on UO-31 renal it was 69.4 µM.
With `CCOC(=O)C(CCC(N)=O)(CCC(=O)OC)C(=O)OCC`, the TGI in the test with HCT-116 colon, in the test with M14 melanoma, with MALME-3M melanoma, in the test with SF-539 CNS, in the test on SNB-75 CNS and in the test with SR leukemia was greater than 100 µM each time. For the same compound, the TGI in the test on SW-620 colon, in the test with UACC-257 melanoma and in the test with UO-31 renal was greater than 100 µM each time.
`NC(=S)N/N=C1\c2ccccc2-c2c(F)c(F)c(F)c(F)c21`: the GI50 is 1.67 µM with HCT-116 colon; 4.53 µM in the test with M14 melanoma; 7.54 µM in the test on MALME-3M melanoma; 7.44 µM in the test with MDA-MB-435; 5.39 µM in the test with SF-539 CNS; 6.36 µM in the test on SNB-75 CNS. Also, the GI50 in the test with SR leukemia is 0.298 µM; with SW-620 colon, 1.79 µM; in the test on UACC-257 melanoma it was 2.93 µM; in the test on UO-31 renal, 4.31 µM. The TGI in the test on HCT-116 colon came out at 3.15 µM; in the test with M14 melanoma, 15.6 µM; with MALME-3M melanoma, 21.1 µM; in the test with MDA-MB-435, 20.6 µM; in the test with SF-539 CNS it was 12.8 µM; in the test on SNB-75 CNS it was 21.6 µM. Also, the TGI in the test on SR leukemia came to 1.86 µM; with SW-620 colon it was 3.66 µM; with UACC-257 melanoma, 9.38 µM; in the test on UO-31 renal, 9.03 µM.
For `COC(=O)c1ncc2c(=O)[nH]c3ccccc3c2c1C(=O)OC`, the TGI in the test with HCT-116 colon, in the test on M14 melanoma, in the test on MALME-3M melanoma, with SF-539 CNS, in the test with SNB-75 CNS and in the test with SR leukemia was greater than 100 µM each time. Further, the TGI with SW-620 colon, in the test with UACC-257 melanoma and with UO-31 renal was greater than 100 µM in each case.
Take `Cc1ccc(/C=C(\NC(=O)c2ccccc2)c2nc3ccccc3[nH]2)cc1`: the TGI with HCT-116 colon, with M14 melanoma, in the test on MALME-3M melanoma, in the test on SF-539 CNS, with SR leukemia and in the test on SW-620 colon was greater than 100 µM each time. For the same compound, the TGI in the test on UACC-257 melanoma and in the test with UO-31 renal was greater than 100 µM throughout.
With `COc1cc(CNCCN2C(=O)c3ccc4c5c(ccc(c35)C2=O)C(=O)N(CCNCc2cc(OC)c(OC)c(OC)c2)C4=O)cc(OC)c1OC`, the GI50 was 0.136 µM in the test with HCT-116 colon; 0.717 µM with M14 melanoma; 0.4 µM in the test with SF-539 CNS; 0.232 µM in the test on SNB-75 CNS; 0.0973 µM in the test on SR leukemia. Further, the TGI in the test on HCT-116 colon came to 0.428 µM; in the test on M14 melanoma it was 1.4 µM; in the test with SF-539 CNS, 1.11 µM; with SNB-75 CNS, 0.826 µM; in the test on SR leukemia, 0.311 µM.
For the compound `COC(=O)[C@@]1(C)C(=O)CC[C@@H]1C=O`, the TGI in the test on HCT-116 colon, in the test with M14 melanoma, with MALME-3M melanoma, in the test with SF-539 CNS, in the test on SR leukemia and with SW-620 colon was greater than 100 µM each time. For the same compound, the TGI with UACC-257 melanoma and in the test with UO-31 renal was greater than 100 µM throughout.
Consider `COc1cccc(-c2cc(=O)c3cc(N4CCOCC4)ccc3[nH]2)c1`, for which the GI50 was 0.0371 µM in the test with HCT-116 colon; 0.0365 µM and 0.0749 µM in the test with M14 melanoma; 0.019 µM in the test with MALME-3M melanoma; 0.0193 µM with SF-539 CNS; 0.0125 µM in the test with SW-620 colon; 0.02 µM with UACC-257 melanoma. Moreover, the GI50 in the test with UO-31 renal was 0.0713 µM. The TGI is greater than 100 µM in the test with M14 melanoma; 0.0256 µM in the test with MDA-MB-435; 0.0505 µM and 0.42 µM with SF-539 CNS; 0.741 µM with SR leukemia; greater than 100 µM in the test with SW-620 colon; greater than 100 µM in the test with UACC-257 melanoma. The TGI in the test on UO-31 renal was greater than 100 µM.
Take `CC1=NN(C(=O)Nc2ccc(Cl)cc2)C(=O)C2CCC(=O)N12` (centres undefined): the TGI in the test on HCT-116 colon, in the test on M14 melanoma, in the test on SF-539 CNS, in the test with SNB-75 CNS, with SR leukemia and in the test with SW-620 colon was greater than 100 µM each time. Moreover, the TGI in the test with UACC-257 melanoma and in the test with UO-31 renal was greater than 100 µM in each case.
Regarding `O=C(CCc1ccccc1)NS(=O)(=O)c1ccccc1`, the TGI in the test with HCT-116 colon, in the test with M14 melanoma, in the test with MALME-3M melanoma, in the test with SF-539 CNS, with SNB-75 CNS and with SR leukemia was greater than 100 µM throughout. Also, the TGI with SW-620 colon, with UACC-257 melanoma and in the test on UO-31 renal was greater than 100 µM throughout.
As to `CCOC(=O)C1=C(C)NC2=C(C(=O)N(c3ccccc3)C2c2ccccc2)C1c1ccccc1` (centres undefined), the TGI in the test with HCT-116 colon is 31.4 µM; in the test with M14 melanoma, 32.1 µM; in the test with MALME-3M melanoma, 33.7 µM; in the test with SF-539 CNS it was 33.1 µM; in the test on SNB-75 CNS it was 26.6 µM; with SR leukemia, 45.5 µM. In addition, the results for the TGI in the test on SW-620 colon, in the test on UACC-257 melanoma and in the test on UO-31 renal were 47.5 µM, 40.2 µM and 39.1 µM, respectively.
As to `CC(C)(C)C(=O)Nc1cccc2oc(-c3ccccc3)cc12`, the TGI with M14 melanoma, in the test on SF-539 CNS, with SNB-75 CNS, with SR leukemia, with SW-620 colon and in the test with UACC-257 melanoma was greater than 100 µM each time. Moreover, the TGI with UO-31 renal is greater than 100 µM.
For `COc1ccc(C2ON(c3ccccc3)CC=C2C)cc1` (centres undefined), the TGI in the test on HCT-116 colon, in the test on M14 melanoma, with MALME-3M melanoma, with SF-539 CNS, in the test on SNB-75 CNS and in the test with SR leukemia was greater than 100 µM in each case. Also, the TGI with SW-620 colon, with UACC-257 melanoma and with UO-31 renal was greater than 100 µM in each case.
